Results reported in patent publication US10969387B2, “Compounds, complexes, and methods useful for detecting and/or treating bacterial pathogens” (REGENTS OF THE UNIVERSITY OF MINNESOTA, priority 2015, dated 2021).

Tests used:
[1] = system: E. coli; settings: Thulasiraman et al., J Bacteriol. 1998; cited from earlier work
[2] = biological target: FepA (Escherichia coli, UniProt P05825); settings: Thulasiraman et al., J Bacteriol. 1998; cited from earlier work
[3] = system: E. coli; assay: Bacteria detection by fluorescence in T media (probe uptake), E. coli; format: cell-based; settings: dye not conjugated to an enterobactin analogue; control experiment (FIG. 28)
Procedure: Sample Processing for Bacteria Detection by Fluorescence in T Media Experiments with Bacteria Genus
• 1. Bacteria is prepared • a. Sub bacteria onto blood agar and incubate overnight • b. Select several colonies and grow overnight in LB media at 37° C. in room air on orbital shaker • c. 100 μl of overnight culture is placed into 100 ml T media, incubated for 5 hours (E. coli, Salmonella, A. baumannii, Klebsiella pneumoniae) or 10 hours (B. subtillus, S. aureus) • d. Quantitate using 1:10 dilution and plating 100 μl of dilutions onto blood agar • 2. Prepare the samples in 1.5 microcentrifuge tubes, vortex, in triplicate • a. For each bacteria • i. 1 ml bacteria+25 μl Tris • ii. 1 ml bacteria+25 μl Probe • b. For each run include controls • i. 1 ml T media+25 μl Tris • ii. […] 24+ hours count colonies on quantitative cultures
The effect of probe chemical structure on response can be seen in FIG. 28 in an increase in fluorescence intensity after incubation of E. coli with Ga-TREN-CAM-C2-OG (example 1), Ga-TREN-GlyCAM-GluCAM-OG (example 2), Ga-3,3-LiCAM-GluCAM-OG (example 4), Ga-2,2-LiCAM-GluCAM (example 5), and the non-targeted dye OREGON GREEN dye. […]
The effect of metal ion on probe uptake can be seen in FIG. 29 in anincrease in fluorescence intensity after incubation of E. coli with Ga-3,3-LiCAM-GluCAM-OG, Fe-3,3-LiCAM-GluCAM, the apo probe, 3,3-LiCAM-GluCAM-OG, and the non-target OREGON GREEN dye. […]

FepA, sequence (P05825 23-746): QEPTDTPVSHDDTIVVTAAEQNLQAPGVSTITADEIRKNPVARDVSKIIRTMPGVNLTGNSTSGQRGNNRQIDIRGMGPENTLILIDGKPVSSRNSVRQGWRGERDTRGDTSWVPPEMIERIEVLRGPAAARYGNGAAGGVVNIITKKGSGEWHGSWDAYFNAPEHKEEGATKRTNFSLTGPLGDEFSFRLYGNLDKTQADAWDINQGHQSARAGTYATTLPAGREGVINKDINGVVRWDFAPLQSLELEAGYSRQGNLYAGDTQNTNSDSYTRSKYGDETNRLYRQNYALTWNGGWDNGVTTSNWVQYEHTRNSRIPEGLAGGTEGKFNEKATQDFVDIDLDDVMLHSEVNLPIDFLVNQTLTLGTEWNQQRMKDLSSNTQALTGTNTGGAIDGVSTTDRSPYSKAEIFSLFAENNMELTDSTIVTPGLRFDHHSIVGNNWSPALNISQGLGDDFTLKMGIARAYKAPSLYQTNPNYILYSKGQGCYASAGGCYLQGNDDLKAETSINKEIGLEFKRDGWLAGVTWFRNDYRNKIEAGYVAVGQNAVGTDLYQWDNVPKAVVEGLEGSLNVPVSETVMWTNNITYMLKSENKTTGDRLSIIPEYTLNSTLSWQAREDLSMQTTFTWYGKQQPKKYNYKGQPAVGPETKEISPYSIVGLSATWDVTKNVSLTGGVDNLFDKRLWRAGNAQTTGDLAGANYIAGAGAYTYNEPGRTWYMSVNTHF

| Molecule | uptake by E. coli [1] | recognition by FepA [2] | accumulation in bacteria [3] |
| --- | --- | --- | --- |
| O=C(NCCN(CCNC(=O)c1cccc(O)c1O)CCNC(=O)c1cccc(O)c1O)c1cccc(O)c1O [TREN-CAM] | actively taken up by E. coli | recognized by FepA | – |
| OREGON GREEN | – | – | does not accumulate in bacteria |
